In ChEMBL document CHEMBL3351565, “Cycloartane-type triterpenes from Euphorbia fischeriana stimulate human CYP3A4 promoter activity” (Bioorg Med Chem Lett, 2014):
Blank lines part the entries; values can stand above or below the molecule they belong to.

Tests used:
[1] = target: Cytochrome P450 3A4 (Homo sapiens, UniProt P08684); experiment: (§1) Induction of CYP3A4 in human HepG2 cells at 10 uM after 24 hrs by luciferase reporter gene assay in presence of hPXR relative to control; conditions: hepg2, 24 h, 10 µM
Chain of Cytochrome P450 3A4 (P08684 whole entry): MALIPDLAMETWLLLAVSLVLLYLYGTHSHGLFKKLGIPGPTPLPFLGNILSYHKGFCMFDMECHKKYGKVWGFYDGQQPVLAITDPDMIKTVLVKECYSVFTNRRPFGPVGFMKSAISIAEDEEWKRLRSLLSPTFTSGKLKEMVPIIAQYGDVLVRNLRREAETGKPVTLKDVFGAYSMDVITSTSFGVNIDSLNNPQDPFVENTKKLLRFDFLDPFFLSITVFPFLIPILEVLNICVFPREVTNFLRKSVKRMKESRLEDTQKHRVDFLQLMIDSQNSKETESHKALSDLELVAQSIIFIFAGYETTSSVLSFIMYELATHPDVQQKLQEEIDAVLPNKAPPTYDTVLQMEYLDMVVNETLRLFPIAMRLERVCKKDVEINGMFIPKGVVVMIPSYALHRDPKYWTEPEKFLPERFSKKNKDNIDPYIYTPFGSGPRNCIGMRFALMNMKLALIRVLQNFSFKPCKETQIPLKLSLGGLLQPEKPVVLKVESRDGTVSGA

[2] = target: CYP3A4 (Homo sapiens, UniProt P08684); experiment: as §1; conditions: HepG2 cells with hPXR and CYP3A4 luciferase reporter
Chain of CYP3A4 (P08684 whole entry): as above

[3] = system: Hepatocyte; experiment: Induction of CYP3A4 mRNA expression in human primary hepatocytes at 10 uM after 24 hrs by RT-PCR analysis

Activity [1]: Not Active
Compound: C=C(C)[C@@H]1CC[C@]2(C)CC[C@]3(C)[C@H](CC[C@@H]4[C@@]5(C)CC[C@@H](O)C(C)(C)[C@@H]5CC[C@]43C)[C@@H]12

Activity [1]: Not Active
Compound: C=C(C)[C@@H]1CC[C@]2(C)CC[C@]3(C)[C@H](CC[C@@H]4[C@@]5(C)CC[C@H](O)C(C)(C)[C@@H]5CC[C@]43C)[C@@H]12 [LUPEOL]

Activity [1]: Active
Compound: CC(C)C1(CC[C@@H](C)[C@H]2CC[C@@]3(C)[C@@H]4CC[C@H]5C(C)(C)[C@@H](O)CC[C@@]56C[C@@]46CC[C@]23C)CO1 (mixture of isomers)

Activity [1]: Not Active
Compound: CC(=O)O[C@H]1CC[C@]2(C)C3=CC=C4[C@@H]5CC(C)(C)CC[C@]5(C)CC[C@@]4(C)[C@]3(C)CC[C@H]2C1(C)C

Second part, the molecule before the results:

Compound: CC(C)C(=O)CC[C@@H](C)[C@H]1CC[C@@]2(C)[C@@H]3CC[C@H]4C(C)(C)[C@@H](O)CC[C@@]45C[C@@]35CC[C@]12C
fold induction at 24 h, 10 µM [2]: 4 | Activity [3]: Active

Compound: CC(=O)O[C@H]1CC[C@]23C[C@]24CC[C@]2(C)[C@@H]([C@H](C)CCC(=O)C(C)C)CC[C@@]2(C)[C@@H]4CC[C@H]3C1(C)C
Activity [1]: Not Active

Compound: C=C(CC[C@@H](C)[C@H]1CC[C@@]2(C)[C@@H]3CC[C@H]4C(C)(C)[C@@H](O)CC[C@@]45C[C@@]35CC[C@]12C)C(C)(C)O
fold induction at 24 h, 10 µM [2]: 4 | Activity [3]: Active

Compound: COC(CO)(CC[C@@H](C)[C@H]1CC[C@@]2(C)[C@@H]3CC[C@H]4C(C)(C)[C@@H](O)CC[C@@]45C[C@@]35CC[C@]12C)C(C)C (mixture of isomers)
fold induction at 24 h, 10 µM [2]: 9.4 | Activity [3]: Not Active
